Values joined by “and” are separate entries in the source; they are usually repeats but may differ in a detail not shown here. Identical values can stand only once. Like-named read-outs stand apart in the source and are kept apart here.
Key:
KRAS G12D = KRAS G12D (Homo sapiens (Human), UniProt P01116, G12D); experiment: KRAS G12D LoEnz Biochemical Assay, BODIPY-GDP Exchange TR-FRET (SOS1-mediated nucleotide exchange); settings: read-out: KRas (G12D) GDP HTRF IC50
KRAS WT [1] = target: T1, KRAS WT (Homo sapiens (Human), UniProt P01116); experiment: KRAS WT Biochemical Assay, BODIPY-GDP Exchange TR-FRET (Example 501; 3 nM KRAS WT, 3 nM SOS1, 60-minute incubation)
Outline: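 SOS1-mediated exchange assay: 3 nM biotin-KRAS WT with terbium-streptavidin, started with 3 nM SOS1 and 300 nM BODIPY-GDP, HEPES pH 7.5 with MgCl2. TR-FRET (520/490 nm) read after 60 min; normalized to DMSO and full-inhibition control, IC50 from 4-parameter Hill fit.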

[2] = test system: AsPC-1 (homozygous mutant KRAS G12D human pancreatic cell line); experiment: KRAS 3D-Cell Proliferation Assay, AsPC-1 (CellTiter-Glo 3D, 7 days); type: cell-based; settings: AsPC-1 3D culture, read-out: Prolif AsPC-1 3D ATP IC50
Procedure: (§1) Example 503: KRAS 3D-Cell Proliferation Assays. Cellular potencies of compounds are assessed by evaluating inhibition of proliferation in 3D cultures of homozygous mutant KRAS G12D human pancreatic cell lines (AsPC-1 and HPAC) as compared to a KRAS wild type human lung adenocarcinoma cell line (PC-9 and/or H1975). Cells are seeded into 384-well black round-bottom, ultra-low attachment assay plates in 50 uL cell growth medium (RPMI-1640 with 10% fetal bovine serum and 2 mM L-glutamine). After overnight incubation at 37° C. and 5% CO2, compounds solubilized in DMSO are added as dilution series to the wells in a total volume of 150 nL (0.3% DMSO final). The cells are incubated for 7 days at 37° C. and 5% CO2. Cell proliferation is quantitated by addition of 40 uL/well of CellTiter-GloO 3D (Promega), and the well contents are mixed 20× at high speed using liquid handling automation workstation (Bravo with 384-well head) and centrifuged at 1500 rpm for 2 minutes to eliminate bubbles. This reagent in combination with mechanical disruption releases the cellular ATP to promote activity in a luciferase-based enzyme/substrate chemiluminescent detection system. After a 30-minute incubation under ambient conditions with shaking and an additional 10 minutes without shaking, the luminescence is read on a plate reader (e.g. EnVision [PerkinElmer]). The results are normalized to percent inhibition based on the following control samples: DMSO (0% inhibition) and 1 uM staurosporine (100% inhibition). The normalized luminescence results are plotted against compound concentration, and the data are fit to a 4-parameter Hill equation to determine the IC50 values.

[3] = test system: HPAC (homozygous mutant KRAS G12D human pancreatic cell line); experiment: KRAS 3D-Cell Proliferation Assay, HPAC (CellTiter-Glo 3D, 7 days); type: cell-based; settings: HPAC 3D culture, read-out: Prolif HPAC 3D ATP IC50
Outline: (§2)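 Cells were grown as 3D cultures in ultra-low attachment plates in RPMI-1640 with 10% FBS and 2 mM glutamine. Compound dilution series (0.3% DMSO final) were added after overnight culture, and plates were incubated for 7 days at 37 °C. CellTiter-Glo 3D luminescence was normalised to DMSO and 1 uM staurosporine, and IC50 was taken from 4-parameter Hill fits.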

[4] = test system: H1975 (KRAS wild type human lung adenocarcinoma cell line); experiment: KRAS 3D-Cell Proliferation Assay, H1975 (CellTiter-Glo 3D, 7 days); type: cell-based; settings: H1975 3D culture, read-out: Prolif H1975 3D ATP IC50
Outline: as §2

KRAS WT [5] = target: T1, KRAS WT; experiment: KRAS WT Biochemical Assay, BODIPY-GDP Exchange TR-FRET (Example 502; 0.06 nM KRAS WT, 15 nM GDP, 300 nM SOS1, 120-minute incubation); settings: read-out: KRas HTRF IC50
Outline: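 IC50 from a 4-parameter Hill fit of percent inhibition, itself the TR-FRET 520/490 nm ratio scaled between DMSO and a fully inhibiting control. Reaction: 300 nM SOS1 and 300 nM BODIPY-GDP added to preformed 0.06 nM KRAS WT/15 nM GDP/Tb-streptavidin complex; 120 min incubation; pH 7.5 HEPES, MgCl2, DTT.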

[6] = test system: PC-9 (KRAS wild type human lung adenocarcinoma cell line); experiment: KRAS 3D-Cell Proliferation Assay, PC-9 (CellTiter-Glo 3D, 7 days); type: cell-based; settings: PC-9 3D culture, read-out: Prolif PC9 3D ATP IC50
Procedure: as §1

[7] = read-out: KRas(wt) GDP HTRF IC50

Sequence of KRAS G12D (P01116-2 other isoform, or with tags, fused parts or gaps G12D): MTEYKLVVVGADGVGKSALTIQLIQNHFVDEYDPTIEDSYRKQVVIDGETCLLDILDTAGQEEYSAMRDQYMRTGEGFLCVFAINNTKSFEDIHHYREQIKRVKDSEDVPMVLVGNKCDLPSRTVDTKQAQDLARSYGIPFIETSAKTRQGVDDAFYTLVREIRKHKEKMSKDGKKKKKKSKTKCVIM
T1 sequence (P01116-2 other isoform, or with tags, fused parts or gaps): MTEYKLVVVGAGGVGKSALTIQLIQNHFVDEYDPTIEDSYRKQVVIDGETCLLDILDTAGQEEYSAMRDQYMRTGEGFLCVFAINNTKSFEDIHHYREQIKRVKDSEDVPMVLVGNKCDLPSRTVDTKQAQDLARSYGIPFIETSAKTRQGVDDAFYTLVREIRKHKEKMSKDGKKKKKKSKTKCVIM

Row | SMILES | IC50 (KRAS G12D) | IC50 (KRAS WT [1]; [7]) | IC50 (KRAS WT [5]) | IC50 ([6]; Homo sapiens, PC-9, 168 h) [nM] | further results
1 | Cc1c(F)c(N)cc(-c2nc3c4c(nc(OC[C@]5(CN6CC7(COC7)C6)CC5(F)F)nc4c2F)N2C[C@H]4CC[C@H](N4)[C@H]2[C@H](C(F)(F)F)O3)c1C(F)(F)F (stereo in doubt) [255 a, 5-((5R,5aS,6S,9R)-12-(((R)-1-((2-oxa-6-azaspiro[3.3]heptan-6-yl)methyl)-2,2-difluorocyclopropyl)methoxy)-1-fluoro-5-(trifluoromethyl)-5a,6,7,8,9,10-hexahydro-5H-4-oxa-3,10a,11,13,14-pentaaza[6,9]methanonaphtho[1,8-ab]heptalen-2-yl)-2-fluoro-3-methyl-4-(trifluoromethyl)aniline] | 0.41 nM |  |  |  | IC50 (KRAS WT [1]; read-out: KRas HTRF IC50): 1.39 nM; IC50 ([2]; Homo sapiens, ASPC1, 168 h): 6.6 nM; IC50 [3]: 1.66 nM; IC50 [4]: 120 nM
2 | C#Cc1cccc2cc(O)cc(-c3nc4c5c(nc(OC[C@@]67CCCN6C[C@H](F)C7)nc5c3F)N3C[C@H]5CC[C@H](N5)[C@H]3CO4)c12 [Compound 3, 5-ethynyl-4-((5aS,6S,9R)-1-fluoro-12-(((2R,7aS)-2-fluorotetrahydro-1H-pyrrolizin-7a(5H)-yl)methoxy)-5a,6,7,8,9,10-hexahydro-5H-4-oxa-3,10a,11,13,14-pentaaza-6,9-methanonaphtho[1,8-ab]heptalen-2-yl)naphthalen-2-ol] | 0.058 nM | 0.517 nM | 0.757 nM | 20000 | 
3 | C[C@@H]1Oc2nc(-c3nc(N)c(F)cc3C(F)(F)F)c(F)c3nc(OC[C@@]45CCCN4C[C@H](F)C5)nc(c23)N2C[C@H]3CC[C@H](N3)[C@@H]12 [Compound 84, 3-Fluoro-6-((5S,5aS,6S,9R)-1-fluoro-12-(((2R,7aS)-2-fluorotetrahydro-1H-pyrrolizin-7a(5H)-yl)methoxy)-5-methyl-5a,6,7,8,9,10-hexahydro-5H-4-oxa-3,10a,11,13,14-pentaaza-6,9-methanonaphtho[1,8-ab]heptalen-2-yl)-5-(trifluoromethyl)pyridin-2-amine] | 24.9 nM |  | 4310 nM | 20000 | 
4 | Cc1cc(N)cc(-c2nc3c4c(nc(OC[C@@]56CCCN5C[C@H](F)C6)nc4c2F)N2C[C@H]4CC[C@H](N4)[C@H]2[C@H](C)O3)c1C(F)(F)F [Compound 16, 3-((5S,5aS,6S,9R)-1-fluoro-12-(((2R,7aS)-2-fluorotetrahydro-1H-pyrrolizin-7a(5H)-yl)methoxy)-5-methyl-5a,6,7,8,9,10-hexahydro-5H-4-oxa-3,10a,11,13,14-pentaaza-6,9-methanonaphtho[1,8-ab]heptalen-2-yl)-5-methyl-4-(trifluoromethyl)aniline] | 0.138 nM | 0.668 nM | 0.484 nM | 20000 | 
5 | C=C1CN2CCC[C@@]2(COc2nc3c4c(nc(-c5nc(N)cc(C)c5C(F)(F)F)c(F)c4n2)O[C@@H](C)[C@@H]2[C@@H]4CC[C@H](CN32)N4)C1 [Compound 48, 6-((5S,5aS,6S,9R)-1-fluoro-5-methyl-12-(((S)-2-methylenetetrahydro-1H-pyrrolizin-7a(5H)-yl)methoxy)-5a,6,7,8,9,10-hexahydro-5H-4-oxa-3,10a,11,13,14-pentaaza-6,9-methanonaphtho[1,8-ab]heptalen-2-yl)-4-methyl-5-(trifluoromethyl)pyridin-2-amine] | 0.491 nM | 10.5 nM | 28.5 nM | 20000 | 
6 | Cc1cc(N)c(F)c(-c2nc3c4c(nc(OCC56CCN5CC(F)(F)C6)nc4c2F)N2C[C@H]4CC[C@H](N4)[C@H]2[C@H](C)O3)c1 (single isomer, unassigned) [Compound 23] |  | 39500 nM and 94500 nM |  |  | IC50 [2]: 20000 nM
7 | Cc1c(F)c(N)cc(-c2nc3c4c(nc(OC[C@]5(CN6CC7(COC7)C6)CC5(F)F)nc4c2F)N2C[C@H]4CC[C@H](N4)[C@H]2[C@H](C(F)(F)F)O3)c1C(F)(F)F (stereo in doubt) [255 b, 5-((5R,5aS,6S,9R)-12-(((R)-1-((2-oxa-6-azaspiro[3.3]heptan-6-yl)methyl)-2,2-difluorocyclopropyl)methoxy)-1-fluoro-5-(trifluoromethyl)-5a,6,7,8,9,10-hexahydro-5H-4-oxa-3,10a,11,13,14-pentaaza[6,9]methanonaphtho[1,8-ab]heptalen-2-yl)-2-fluoro-3-methyl-4-(trifluoromethyl)aniline] | 0.27 nM |  |  |  | IC50 (KRAS WT [1]; read-out: KRas HTRF IC50): 1.17 nM; IC50 [2]: 4.7 nM; IC50 [3]: 4.21 nM; IC50 [4]: 308 nM
8 | Cc1c(F)c(N)cc(-c2nc3c4c(nc(OC[C@@]56CCCN5C[C@H](F)C6)nc4c2F)N2C[C@H]4CC[C@H](N4)[C@@H]2C(C)O3)c1C(F)(F)F (single isomer, unassigned) [237 (isomer 2)] | 0.15 nM |  |  |  | IC50 (KRAS WT [1]; read-out: KRas HTRF IC50): 0.35 nM; IC50 ([2]; Homo sapiens, ASPC1, 168 h): 200 nM
9 | C[C@@H]1Oc2nc(-c3nc(N)c(F)cc3C(F)(F)F)c(F)c3nc(OC[C@]45CCN4CC(F)(F)C5)nc(c23)N2C[C@H]3CC[C@H](N3)[C@@H]12 [Compound 87, 6-((5S,5aS,6S,9R)-12-(((R)-3,3-Difluoro-1-azabicyclo[3.2.0]heptan-5-yl)methoxy)-1-fluoro-5-methyl-5a,6,7,8,9,10-hexahydro-5H-4-oxa-3,10a,11,13,14-pentaaza-6,9-methanonaphtho[1,8-ab]heptalen-2-yl)-3-fluoro-5-(trifluoromethyl)pyridin-2-amine] | 68.9 nM |  | 16100 nM | 20000 | 
10 | C[C@@H]1Oc2nc(-c3cnccc3C(F)(F)F)c(F)c3nc(OC[C@]45CCN4CC(F)(F)C5)nc(c23)N2C[C@H]3CC[C@H](N3)[C@@H]12 [Compound 78, (5S,5aS,6S,9R)-12-(((R)-3,3-Difluoro-1-azabicyclo[3.2.0]heptan-5-yl)methoxy)-1-fluoro-5-methyl-2-(4-(trifluoromethyl)pyridin-3-yl)-5a,6,7,8,9,10-hexahydro-5H-4-oxa-3,10a,11,13,14-pentaaza-6,9-methanonaphtho[1,8-ab]heptalene] | 867 nM |  | 200000 nM | 20000 | 
11 | C[C@@H]1Oc2nc(-c3cc(N)c(F)cc3C(F)(F)F)c(F)c3nc(OC[C@]45CCN4CC(F)(F)C5)nc(c23)N2C[C@H]3CC[C@H](N3)[C@@H]12 [Compound 71, 5-((5S,5aS,6S,9R)-12-(((R)-3,3-Difluoro-1-azabicyclo[3.2.0]heptan-5-yl)methoxy)-1-fluoro-5-methyl-5a,6,7,8,9,10-hexahydro-5H-4-oxa-3,10a,11,13,14-pentaaza-6,9-methanonaphtho[1,8-ab]heptalen-2-yl)-2-fluoro-4-(trifluoromethyl)aniline] | 3.51 nM |  | 313 nM | 20000 | 
12 | Cc1cc(N)c(F)c(-c2nc3c4c(nc(OC[C@@]56CCN5CC(F)(F)C6)nc4c2F)N2C[C@H]4CC[C@H](N4)[C@H]2[C@H](C)O3)c1C(F)(F)F [Compound 92, 3-((5S,5aS,6S,9R)-12-(((S)-3,3-Difluoro-1-azabicyclo[3.2.0]heptan-5-yl)methoxy)-1-fluoro-5-methyl-5a,6,7,8,9,10-hexahydro-5H-4-oxa-3,10a,11,13,14-pentaaza-6,9-methanonaphtho[1,8-ab]heptalen-2-yl)-2-fluoro-5-methyl-4-(trifluoromethyl)aniline] | 0.76 nM and 1.01 nM |  | 34.9 nM and 148 nM |  | IC50 [6]: 8130 nM
13 | Nc1nc2c(-c3nc4c5c(ncnc5c3F)N3C[C@H]5CC[C@H](N5)[C@H]3CO4)ccc(F)c2s1 [Compound 55, 7-fluoro-4-((5aS,6S,9R)-1-fluoro-5a,6,7,8,9,10-hexahydro-5H-4-oxa-3,10a,11,13,14-pentaaza-6,9-methanonaphtho[1,8-ab]heptalen-2-yl)benzo[d]thiazol-2-amine] | 22200 nM | 200000 nM |  |  | IC50 ([2]; Homo sapiens, ASPC1, 168 h): 20000 nM
